# Source: patent US4010264A, “7-[3-Substituted isoxazol-5-yl]-acetamido-cephalosporanic acids and their anti-bacterial use” (Koninklijke Nederlandsche Gist-en Spiritusfabriek N.V., priority 1970, dated 1977)
# Structures can show the parent of a compound that is named as a salt. Where two headings read alike, the source gives them in different places.
# Assays:
# [1] = system: Staphylococcus aureus L160a (penicillinase-producing); test: MIC, agar serial dilution test; conditions: 24 h
# [2] = system: Streptococcus faecalis L 80; test: MIC, agar serial dilution test; type: cell-based; conditions: Enterococcus faecalis
# [3] = system: Brucella melitensis A488; test: microbe, parasite or virus in culture; type: cell-based; conditions: A488, 24 h
# [4] = system: Diplococcus pneumoniae L 54; test: MIC, agar serial dilution test; type: cell-based; conditions: Streptococcus pneumoniae
# [5] = system: Streptococcus haemolyticus A266; test: MIC, agar serial dilution test; type: cell-based
# [6] = system: Staphylococcus aureus A355 (penicillinase-producing); test: MIC, agar serial dilution test; conditions: 24 h
# [7] = system: Staphylococcus aureus A55; test: MIC, agar serial dilution test; type: cell-based
# [8] = system: Klebsiella pneumoniae A809; test: MIC, agar serial dilution test; type: cell-based
# [9] = system: Bacillus subtilis ATCC 6633; test: MIC, agar serial dilution test; type: cell-based
# [10] = system: Staphylococcus aureus A321; test: MIC, agar serial dilution test; type: cell-based
# [11] = system: Pasteurella multocida A723; test: MIC, agar serial dilution test; type: cell-based
# [12] = Staphylococcus aureus, A55, 24 h
# [13] = Klebsiella pneumoniae, A809, 24 h
# [14] = Bacillus subtilis, ATCC6633, 24 h
# [15] = Staphylococcus aureus, A321, 24 h
# [16] = Pasteurella multocida, A723, 24 h
# [17] = L80, Streptococcus faecalis L 80, 24 hours at 37° C, read-out: MIC
# [18] = L54, Diplococcus pneumoniae L 54, 24 hours at 37° C, read-out: MIC
# [19] = Streptococcus haemolyticus A266, 24 hours at 37° C, read-out: MIC
# [20] = Staphylococcus aureus A55, 24 hours at 37° C, read-out: MIC
# [21] = Klebsiella pneumoniae A809, 24 hours at 37° C, read-out: MIC
# [22] = ATCC6633, Bacillus subtilis ATCC 6633, 24 hours at 37° C, read-out: MIC
# [23] = Staphylococcus aureus A321, 24 hours at 37° C, read-out: MIC
# [24] = Pasteurella multocida A723, 24 hours at 37° C, read-out: MIC
SMILES,MIC [1],"MIC ([2]; L80, 24 h)",MIC [3],"MIC ([4]; L54, 24 h)","MIC ([5]; Streptococcus, A266, 24 h)",MIC [6],"MIC [7, 12]","MIC [8, 13]","MIC [9, 14]","MIC [10, 15]","MIC [11, 16]","MIC [2, 17]","MIC [4, 18]","MIC [5, 19]","MIC [7, 20]","MIC [8, 21]","MIC [9, 22]","MIC [10, 23]","MIC [11, 24]"
"CC1=C(C(=O)O)N2C(=O)[C@@H](NC(=O)[C@H](N)c3ccccc3)[C@H]2SC1 [Cephalexine, Cephalexin, reference compound]",12.5 µg/mL,100 µg/mL,6 µg/mL,3 µg/mL,0.25 µg/mL,12.5 µg/mL,3 µg/mL,3 µg/mL,0.5 µg/mL,1.5 µg/mL,3 µg/mL,–,–,–,–,–,–,–,–
"O=C(Cc1cccs1)N[C@@H]1C(=O)N2C(C(=O)[O-])=C(C[n+]3ccccc3)CS[C@H]12 [Cephaloridine, Cephaloridin, reference compound]",0.06 µg/mL,12.5 µg/mL,3 µg/mL,0.015 µg/mL,0.015 µg/mL,0.12 µg/mL,0.06 µg/mL,3 µg/mL,0.06 µg/mL,0.06 µg/mL,1 µg/mL,–,–,–,–,–,–,–,–
"Cc1onc(-c2ccccc2Cl)c1C(=O)N[C@@H]1C(=O)N2[C@@H]1SC(C)(C)[C@@H]2C(=O)O [Cloxazilline, Cloxacillin, reference compound]",1 µg/mL,–,100 µg/mL,–,–,0.5 µg/mL,–,–,–,–,–,25 µg/mL,1.5 µg/mL,0.25 µg/mL,0.12 µg/mL,6 µg/mL,0.25 µg/mL,0.06 µg/mL,6 µg/mL
"Cc1c(-c2c(Cl)cccc2Cl)noc1CC(=O)NC1C(=O)N2C1SC(C)(C)C2C(=O)O (stereo not drawn) [Example X, Sodium salt of 6-{[3-(2,6-dichloro)phenyl-4-methyl-isoxazol-5-yl]acetamido}penicillanic acid]",0.5 µg/mL,–,3 µg/mL,–,–,3 µg/mL,–,–,–,–,–,0.25 µg/mL,0.02 µg/mL,0.006 µg/mL,0.03 µg/mL,> 100 µg/mL,0.005 µg/mL,0.03 µg/mL,3 µg/mL
"CC1(C)SC2C(NC(=O)Cc3onc(-c4c(Cl)cccc4Cl)c3C#N)C(=O)N2C1C(=O)O (stereo not drawn) [Example XV, Sodium salt of 6-{[3-(2,6-dichloro)phenyl-4-cyano-isoxazol-5-yl]acetamido}penicillanic acid]",12.5 µg/mL,–,6 µg/mL,–,–,12.5 µg/mL,–,–,–,–,–,0.5 µg/mL,0.03 µg/mL,0.06 µg/mL,0.5 µg/mL,> 100 µg/mL,0.25 µg/mL,1 µg/mL,12.5 µg/mL
"CC1(C)SC2C(NC(=O)Cc3cc(C45CC6CC(CC(C6)C4)C5)no3)C(=O)N2C1C(=O)O (stereo not drawn) [Example XVI, Sodium salt of 6-{[3-(1)adamantyl-isoxazol-5-yl]acetamido} penicillanic acid]",12.5 µg/mL,–,3 µg/mL,–,–,12.5 µg/mL,–,–,–,–,–,0.25 µg/mL,0.06 µg/mL,< 0.015 µg/mL,0.5 µg/mL,> 100 µg/mL,0.03 µg/mL,0.03 µg/mL,6 µg/mL
"CC1(C)SC2C(NC(=O)C(NC(=O)OCc3ccc([N+](=O)[O-])cc3)c3cc(-c4c(Cl)cccc4Cl)no3)C(=O)N2C1C(=O)O (stereo not drawn) [Example XVII, 6-{-α-p-nitro-benzyloxycarbonylamino-[3-(2,6-dichloro)phenylisoxazol-5-yl]acetamido}penicillanic acid]",6 µg/mL,–,25 µg/mL,–,–,12.5 µg/mL,–,–,–,–,–,3 µg/mL,0.5 µg/mL,0.06 µg/mL,1 µg/mL,> 100 µg/mL,0.5 µg/mL,1 µg/mL,50 µg/mL
"CC1(C)SC2C(NC(=O)C(N)c3cc(-c4c(Cl)cccc4Cl)no3)C(=O)N2C1C(=O)O (stereo not drawn) [Example XVIII, 6-{α-amino-[3-(2,6-dichloro)phenyl-isoxazol-5-yl]acetamido} penicillanic acid]",12.5 µg/mL,–,0.5 µg/mL,–,–,12.5 µg/mL,–,–,–,–,–,1 µg/mL,0.12 µg/mL,< 0.015 µg/mL,0.25 µg/mL,> 100 µg/mL,0.06 µg/mL,0.12 µg/mL,6 µg/mL
"CC1(C)SC2C(NC(=O)C(C(N)=O)c3cc(-c4c(Cl)cccc4Cl)no3)C(=O)N2C1C(=O)O (stereo not drawn) [Example XX, 6-{α-carbamyl-[3-(2,6-dichloro)phenyl-isoxazol-5-yl]acetamido} penicillanic acid]",3 µg/mL,–,3 µg/mL,–,–,3 µg/mL,–,–,–,–,–,0.5 µg/mL,0.06 µg/mL,0.03 µg/mL,0.25 µg/mL,> 100 µg/mL,0.25 µg/mL,0.25 µg/mL,6 µg/mL
